In patent publication US11261192B2, “Substituted 1,2-dihydro-3H-pyrazolo[3,4-D]pyrimidin-3-ones” (Recurium IP Holdings, LLC, priority 2018, dated 2022) one finds IC50 data, which are given here for 33 molecules.

For orientation: IC50 means the concentration that inhibits the measured activity by half.

This assay has as its system H23 cells. Kind of assay: H23 Cellular Proliferation Assay (CellTiter-Glo). The assay is classed as cell-based. Conditions: Homo sapiens, NCI-H23, 96 h, 4 days, read-out: H23 CTG IC50. Here is the method: H23 Cellular Proliferation Assay
Cells were treated with compounds diluted in DMSO and a 9 point 5-fold serial dilutions. Plates were placed in 37° C., 5% CO2 for to incubate for 4 days. Before they were developed by adding 100 μL of CellTiter-Glo reagent (Promega) to the assay plate, plates were shaken briefly for 2 mins and allowed to incubate at rt for 10 mins. The plates are read with a M5e plate reader according to CellTiter-Glo protocol. The GraphPad Prism software is used to get IC50 values.
Turning to `C=CCn1c(=O)c2cnc(Nc3ccc(N4CCN(C)CC4)cc3)nc2n1-c1ccc2c(n1)[C@](O)(C(F)(F)F)CO2` (single isomer, unassigned) [Example 6A], the half-inhibitory concentration (IC50) was above 1000 nM.
`C=CCn1c(=O)c2cnc(Nc3ccc(C4=CCN(C)CC4)c(C)c3)nc2n1-c1ccc2c(n1)[C@](O)(CC)CC2` (single isomer, unassigned) [Example 40A]: the IC50 lay within 100 to 1000 nM.
In the case of `C=CCn1c(=O)c2cnc(Nc3ccc(N4CCNCC4)c(C)c3)nc2n1-c1ccc2c(n1)[C@](O)(CC)CC2` (single isomer, unassigned) [Example 13A], the IC50 is 100 to 1000 nM.
As to `C=CCn1c(=O)c2cnc(Nc3ccc(N4CCN(C)CC4)c(C)c3)nc2n1-c1ccc2c(c1)[C@](C)(O)CC2` (single isomer, unassigned) [Example 23B], the IC50 is below 100 nM.
As for `C=CCn1c(=O)c2cnc(Nc3ccc(N4CCN(C)CC4)cc3)nc2n1-c1ccc2c(c1)[C@@](O)(CC)CO2` (single isomer, unassigned) [Example 5B], the IC50 was 100 to 1000 nM.
In the case of `C=CCn1c(=O)c2cnc(Nc3ccc(N4CCNCC4)cc3)nc2n1-c1ccc2c(n1)[C@@](O)(CC)CC2` [Example 14, (R)-2-allyl-1-(7-ethyl-7-hydroxy-6,7-dihydro-5H-cyclopenta[b]pyridin-2-yl)-6-((4-(piperazin-1-yl)phenyl)amino)-1,2-dihydro-3H-pyrazolo[3,4-d]pyrimidin-3-one], the IC50 is 100 to 1000 nM.
As to `C=CCn1c(=O)c2cnc(Nc3ccc(N4CCN(C)CC4)c(C)c3)nc2n1-c1ccc2c(c1)[C@@](C)(O)CC2` (single isomer, unassigned) [Example 23A], the IC50 was in the range of 100 to 1000 nM.
Under `C=CCn1c(=O)c2cnc(Nc3ccc(N4CCN(C)CC4)cc3)nc2n1-c1ccc2c(n1)[C@](O)(C1CC1)CC2` (single isomer, unassigned) [Example 16A] stands 100 to 1000 nM; under `C=CCn1c(=O)c2cnc(Nc3ccc(N4CCNCC4)cc3)nc2n1-c1ccc2c(n1)[C@](C)(O)CCC2` (single isomer, unassigned) [Example 28B], 100 to 1000 nM; under `C=CCn1c(=O)c2cnc(Nc3ccc(N4CCN(C)C[C@@H]4C)cc3)nc2n1-c1ccc2c(n1)[C@@](C)(O)CC2` (single isomer, unassigned) [Example 19A], above 1000 nM.
Take `C=CCn1c(=O)c2cnc(Nc3ccc4c(c3)CNCC43CC3)nc2n1-c1ccc2c(n1)[C@](C)(O)CCC2` (single isomer, unassigned) [Example 31B]: the IC50 is below 100 nM.
In the case of `C=CCn1c(=O)c2cnc(Nc3ccc4c(ccn4C4CCN(C)CC4)c3)nc2n1-c1ccc2c(n1)[C@@](O)(CC)CC2` (single isomer, unassigned) [Example 39B] it was 100 to 1000 nM.
Under `C=CCn1c(=O)c2cnc(Nc3ccc(N4CCN(C)CC4)cc3)nc2n1-c1cccc(C(C)(C)O)n1` [AZD1775, 2-allyl-1-(6-(2-hydroxypropan-2-yl)pyridin-2-yl)-6-(4-(4-methylpiperazin-1-yl)phenylamino)-1,2-dihydropyrazolo[3,4-d]pyrimidin-3-one, reference compound] stands 100 to 1000 nM.
In the case of `C=CCn1c(=O)c2cnc(Nc3ccc(N4CCN(C)CC4)cc3)nc2n1-c1ccc2c(c1)[C@](O)(CC)CO2` (single isomer, unassigned) [Example 5A] it was above 1000 nM.
With `C=CCn1c(=O)c2cnc(Nc3ccc(N4CCN(C)[C@@H](C)C4)cc3)nc2n1-c1ccc2c(n1)[C@@](C)(O)CC2` (single isomer, unassigned) [Example 17A], the IC50 was in the range of 100 to 1000 nM.
Under `C=CCn1c(=O)c2cnc(Nc3ccc(N4CCNCC4)cc3)nc2n1-c1ccc2c(n1)[C@@](C)(O)CCC2` (single isomer, unassigned) [Example 28A] stands 100 to 1000 nM; under `C=CCn1c(=O)c2cnc(Nc3ccc4c(ccn4C4CCN(C)CC4)c3)nc2n1-c1ccc2c(n1)[C@](O)(CC)CC2` (single isomer, unassigned) [Example 39A], 100 to 1000 nM.
Under `C=CCn1c(=O)c2cnc(Nc3ccc(N4CCNCC4)c(C)c3)nc2n1-c1ccc2c(n1)[C@@](O)(CC)CC2` (single isomer, unassigned) [Example 13B] stands below 100 nM.
For the molecule `C=CCn1c(=O)c2cnc(Nc3ccc(N4CCN(C)CC4)cc3)nc2n1-c1cc(F)c2c(c1)[C@](C)(O)CC2` (single isomer, unassigned) [Example 24B], the IC50 lay in the range of 100 to 1000 nM.
Under `C=CCn1c(=O)c2cnc(Nc3ccc4c(c3)CNCC43CC3)nc2n1-c1ccc2c(n1)[C@@](C)(O)CCC2` (single isomer, unassigned) [Example 31A] stands below 100 nM.
On to `C=CCn1c(=O)c2cnc(Nc3ccc(N4CCN(C)[C@H](C)C4)cc3)nc2n1-c1ccc2c(n1)[C@](C)(O)CC2` (single isomer, unassigned) [Example 18B], for which the IC50 was in the range of 100 to 1000 nM.
In the case of `C=CCn1c(=O)c2cnc(Nc3ccc(N4CCN(C)[C@H](C)C4)cc3)nc2n1-c1ccc2c(n1)[C@@](C)(O)CC2` (single isomer, unassigned) [Example 18A] it was 100 to 1000 nM; in that of `C=CCn1c(=O)c2cnc(Nc3ccc(N4CCN(C)CC4)cc3)nc2n1-c1cc(F)c2c(c1)[C@@](C)(O)CC2` (single isomer, unassigned) [Example 24A], 100 to 1000 nM; in that of `C=CCn1c(=O)c2cnc(Nc3ccc(N4CCN(C)CC4)cc3)nc2n1-c1ccc2c(n1)[C@](O)(C(C)(F)F)CC2` (single isomer, unassigned) [Example 38A], above 1000 nM.
Turning to `C=CCn1c(=O)c2cnc(Nc3ccc(N4CCN(C)CC4)cc3)nc2n1-c1ccc2c(n1)[C@@](O)(C(F)(F)F)CO2` (single isomer, unassigned) [Example 6B], the half-inhibitory concentration (IC50) was 100 to 1000 nM.
Under `C=CCn1c(=O)c2cnc(Nc3ccc(N4CCN(C)CC4)cc3)nc2n1-c1ccc2c(n1)[C@@](C)(NC(C)=O)CCC2` (single isomer, unassigned) [Example 41A] stands above 1000 nM.
In the case of `C=CCn1c(=O)c2cnc(Nc3ccc(C4=CCN(C)CC4)c(C)c3)nc2n1-c1ccc2c(n1)[C@@](O)(CC)CC2` (single isomer, unassigned) [Example 40B], the IC50 was below 100 nM.
As to `C=CCn1c(=O)c2cnc(Nc3ccc(N4CCN(C)C[C@@H]4C)cc3)nc2n1-c1ccc2c(n1)[C@](C)(O)CC2` (single isomer, unassigned) [Example 19B], the IC50 was in the range of 100 to 1000 nM.
`C=CCn1c(=O)c2cnc(Nc3ccc(N4CCN(C)CC4)cc3)nc2n1-c1cc2c(cn1)CC[C@]2(C)O` (single isomer, unassigned) [Example 37A]: the half-inhibitory concentration (IC50) is above 1000 nM.
Take `C=CCn1c(=O)c2cnc(Nc3ccc(N4CCN(C)C[C@H]4C)cc3)nc2n1-c1ccc2c(n1)[C@@](C)(O)CC2` (single isomer, unassigned) [Example 20A]: the IC50 was above 1000 nM.
In the case of `C=CCn1c(=O)c2cnc(Nc3ccc(N4CCN(C)C[C@H]4C)cc3)nc2n1-c1ccc2c(n1)[C@](C)(O)CC2` (single isomer, unassigned) [Example 20B] it was 100 to 1000 nM; in that of `C=CCn1c(=O)c2cnc(Nc3ccc(N4CCN(C)CC4)cc3)nc2n1-c1ccc2c(n1)[C@](C)(NC(C)=O)CCC2` (single isomer, unassigned) [Example 41B], above 1000 nM; in that of `C=CCn1c(=O)c2cnc(Nc3ccc(N4CCN(C)CC4)cc3)nc2n1-c1ccc2c(n1)[C@@](O)(C(C)(F)F)CC2` (single isomer, unassigned) [Example 38B], 100 to 1000 nM.
